Measured values as given in patent publication US11980625B2, “Ganaxolone for use in treating tuberous sclerosis complex” (Marinus Pharmaceuticals, Inc., priority 2019, dated 2024).
“Also recorded” adds a separate entry of the source.

How the values were obtained:
Solubility of ganaxolone = format: physicochemical
Method: Ganaxolone is insoluble in water. Its solubilities in 95% alcohol, propylene glycol and polyethylene glycol are 13 mg/mL, 3.5 mg/mL and 3.1 mg/mL, respectively.
The pregnenolone neurosteroid (e.g., ganaxolone) formulations suitable may also be administered parenterally. In such embodiments, the formulations are suitable for intramuscular, subcutaneous, or intravenous injection may comprise physiologically acceptable sterile aqueous or non-aqueous solutions, dispersions, suspensions or emulsions, and sterile powders for reconstitution into sterile injectable solutions or dispersions. Examples of suitable aqueous and non-aqueous carriers, diluents, solvents, or vehicles including water, ethanol, polyols (propylene glycol, polyethylene-glycol, glycerol, cremophor and the like), suitable mixtures thereof, vegetable oils (such as olive oil) and injectable organic esters such as ethyl oleate. Additionally, Ganaxolone can be dissolved at concentrations of >1 mg/ml using water soluble beta cyclodextrins (e.g. beta-sulfobutyl-cyclodextrin and 2-hydroxypropylbetacyclodextrin). A particularly suitable cyclodextrin is a substituted-β-cyclodextrin is Captisol®. Proper fluidity can be maintained, for example, by the use of a coating such as lecithin, by the maintenance of the required particle size in the case of dispersions, and by the use of surfactants. […]

rats [1] = assay: 6-month study in rats; format: in vivo; details: more pronounced in females, correlated to increased liver weights and hepatocellular hypertrophy
[2] = In vitro haemolysis and plasma compatibility; design: species or system human
Method: When given IV to rats and dogs, the main dose limiting toxicity finding was sedation. The no observed adverse effect level (NOAEL) after IV dosing in rats for 14 days was established at 42 mg/kg/day for males and 30 mg/kg/day for females. The NOAEL in dog after administration of ganaxolone by IV bolus followed by continuous IV infusion for 28 days was 7.20 mg/kg/day, which corresponded to a steady-state concentration of approximately 330 ng/mL and 333 ng/mL. There were no findings in a local tolerance study in rabbits.

[3] = Excretion of radioactivity; format: in vivo; details: all species
Source text: Most excreted radioactivity in all species is via faeces (>70%) with the remaining excreted in urine.

rats [4] = assay: Intravenous ganaxolone in rats: EEG and status epilepticus models; format: in vivo
[5] = test system: individuals with a confirmed PCDH19 mutation (PCDH19-related epilepsy); assay: Open-label study in individuals with PCDH19 mutation, seizure frequency and Allo-S biomarker; format: in vivo, human
Method: FIG. 1 depicts baseline endogenous allopregnenolone-sulfate (“Allo-S”) levels in female patients with PCDH19-related epilepsy stratified by responder vs. non-responder. When stratifying patients with allopregnanolone-sulfate (Allo-S) levels <2.5 ng mL-1, a 50% median reduction in seizure frequency (n=7) compared to baseline was observed. This analysis was conducted retrospectively in a small, open label cohort.
Individuals (n=11) with a confirmed PCDH19 mutation and minimum seizure burden were enrolled between May 2015 and November 2015 at six centers in the U.S. and Italy. Seizure frequency change (%) was assessed as the primary endpoint and a responder was defined as having a 25% or greater decrease in seizure rate. Plasma neurosteroid levels were quantified using a previously published GC/MS method (doi:10.1016/50028-3908(99)00149-5). In two cases, baseline neurosteroid levels were not measured.

dogs [6] = assay: 1-year (chronic oral) dog toxicity study; format: in vivo
Source text: There was a physiologically normal shortening of the PR and QT interval in response to the higher heart rate. There was no effect on QRS duration or QTc interval.

[7] = test system: adults with focal seizures; assay: Clinical trial in adults with focal seizures; format: in vivo, human; details: daily dose of 1800 mg (900 mg twice a day)
Method: Given the complexity and difficulties in treating TSC and TSC-related epilepsy, the inventors believed that a high dose of drug (e.g., ganaxolone) would be required for effective treatment. For example, in a clinical trial in adults with focal seizures, ganaxolone was administered at a daily dose of 1800 mg (administered as 900 mg twice a day), yet the clinical endpoint was not achieved. […] Without wishing to be bound by any particular theory or mechanism, it is believed that more frequent administration of ganaxolone (e.g., three time a day) but at a lower daily dose than was used previously, improves drug exposure by maintaining a ganaxolone serum level (e.g., trough levels) above a threshold level for longer periods of time resulting in effective treatment. For example, administering oral ganaxolone three times daily (or more) with a total daily dose of no more than 1800 mg, or no more than 1700 mg, or no more than 1600 mg, or no more than 1500 mg, or no more than 63/mg/kg/day of ganaxolone can produce a plasma concentration of ganaxolone of at least about 100 ng/ml for approximately 70% or greater for a 24 hour-day, and provide effective seizure reduction. Also, less ganaxolone is typically required to achieve the increased trough concentration of ganaxolone using three time per day (or more frequent) administration, which is also beneficial for the subject under treatment. […]

dogs [8] = assay: Cardiovascular parameters in dogs after a single dose; format: in vivo; details: single dose of up to 15 mg/kg
[9] = test system: BTBR mouse model of autism; details: in vivo; cited from earlier work
[10] = test system: children and adolescents with fragile X syndrome (FXS); details: b131: in those with higher baseline anxiety; cited from earlier work

## CC(=O)[C@H]1CC[C@H]2[C@@H]3CC[C@H]4C[C@](C)(O)CC[C@]4(C)[C@H]3CC[C@]12C [Ganaxolone, 3α-hydroxy-3β-methyl-5α-pregnan-20-one]
Mutagenicity
  mutagenicity: No potential for mutagenicity was detected
Solubility of ganaxolone; aqueous with cosolvent or surfactant or cyclodextrin, beta-sulfobutyl-cyclodextrin, 2-hydroxypropylbetacyclodextrin, read-out: concentration dissolved using water soluble beta cyclodextrins
  solubility: > 1000 µg/mL
Solubility of ganaxolone; water
  solubility in water: insoluble
Rats [1]
  hepatic findings: induced hepatic enzymes
[2]
  compatibility with human plasma: compatible with human plasma
  haemolysis: did not cause haemolysis
[3]
  excreted radioactivity via faeces: > 70%
Rats [4]
  EEG effect in otherwise normal rats: induce burst suppression-like electroencephalogram (EEG) patterns
Rats [4]; caused a sedative response
  sedative/anesthetic response: did not cause a full anesthetic response
[5]; all-comers (n=11)
  median decrease in 28-day seizure frequency (all seizure types) from baseline: 26%
[5]; biomarker-negative (high Allo-S) group, p=0.25, Wilcoxon
  seizure frequency at 6 months compared to baseline: did not improve
[5]; biomarker-negative (n=4, Allo-S >2,500 pg mL-1)
  median % change seizure rate: 247%
[5]; biomarker-positive (n=7, Allo-S<2,500 pg mL-1)
  median % change seizure rate: −53.9%
[5]; biomarker-positive group, p=0.02, Wilcoxon
  seizure frequency at 6 months compared to baseline: significantly improved
[5]; patients with Allo-S levels <2.5 ng mL-1 (n=7), FIG. 1
  median reduction in seizure frequency compared to baseline: 50%
Dogs [6]; 1-year dog toxicity study
  effect on QRS duration or QTc: no treatment effect
Dogs [6]; 10 and 15 mg/kg/day
  findings associated with mean Cmax greater than 1500 ng/mL: increased weight and total plasma cholesterol levels
Dogs [6]; after 3 months of dosing in 4 animals, with decreased PR and QT interval
  heart rate finding (>190 beats per minute): transient sinus tachycardia
[7]
  clinical endpoint: not achieved
Dogs [8]
  area under the concentration time curve (AUC)(0-24): 10000 n·gh/mL
  effect on cardiovascular parameters: no effect
[9]
  sociability: improved sociability
[10]
  anxiety, hyperactivity and attention: reduce anxiety, hyperactivity, and attention; also recorded: reduced anxiety and hyperactivity and improved attention
